Like-named read-outs stand apart in the source and are kept apart here.
Legend:
[1] = tested on: alcohol dehydrogenases in the liver; details: background, cited from earlier work
[2] = tested on: ethanol induced loss of righting reflex; details: mice; Sharkawi 1979; cited from earlier work
[3] = biological target: T1, horse liver alcohol dehydrogenase (Equus caballus, UniProt P00327); test: Inhibition of horse liver alcohol dehydrogenase in vitro (Kii against varied ethanol); type: biochemical
T1 construct: Crystallized horse liver alcohol dehydrogenase; from tissue; host or cells: horse liver
T1 sequence (P00327 2-375 limits assumed): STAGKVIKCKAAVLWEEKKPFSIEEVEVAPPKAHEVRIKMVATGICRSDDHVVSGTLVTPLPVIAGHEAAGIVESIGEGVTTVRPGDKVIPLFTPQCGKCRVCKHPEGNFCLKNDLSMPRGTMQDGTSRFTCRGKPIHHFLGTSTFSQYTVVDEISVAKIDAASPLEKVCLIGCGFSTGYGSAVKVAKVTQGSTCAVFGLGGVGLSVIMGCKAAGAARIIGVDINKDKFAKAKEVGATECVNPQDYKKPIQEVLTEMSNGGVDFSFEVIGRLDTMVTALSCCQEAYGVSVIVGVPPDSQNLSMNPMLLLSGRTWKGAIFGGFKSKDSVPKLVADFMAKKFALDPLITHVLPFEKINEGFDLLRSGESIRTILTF
Description: (§1) ^a The Kii values (intercept) inhibition constants in micromolar
(§2) units as determined against varied concentrations of ethanol as substrate
(§3) Purified or partially purified enzyme was tested under approximately
(§4) physiological conditions, pH 7.3 and 37° C., except that the
(§5) crystallized horse enzyme was tested at pH 7 and 25° C.
(§6) Crystallized horse liver alcohol dehydrogenase was freed from endogenous ethanol by filtration though a column of Sephadex G-50. Inhibition studies were carried out with varied concentrations of ethanol (0.4-2 mM) at 1 mM NAD+ in 46 mM sodium phosphate buffer, pH 7, at 25° C. In each experiment, at least three different concentrations of inhibitor were tested and 32 initial velocities were determined (as in FIGS. 2A and 3A of the Journal article). Data for noncompetitive inhibition were fitted to the equation v=VS/[Km (1+[…])+S(1+I/Kii)], whereas the equation for uncompetitive inhibition has no Kis term, and competitive inhibition has no Kii term. The equation giving the lowest standard errors and residual variance was concluded to give the best fit. Rat liver alcohol dehydrogenase was partially purified, and inhibition studies were performed as with the horse liver enzyme, except that the buffer was 83 mM potassium phosphate, pH 7.3, and 40 mM KCl, total ionic strength=0.25, and the temperature was 37.8° C. The concentration of NAD was 0.5 mM. These conditions are thought to resemble those found in vivo. The concentrations of ethanol were 0.4, 0.6, 1, and 2 mM, and the inhibitors were varied between 0 and 0.6 mM.

ethanol metabolism [4] = test: Blood alcohol concentration in rats after ethanol and inhibitor (FIG. 1); type: in vivo; details: 19.6 mmol/kg ethanol, 1 mmol/kg inhibitor
Description: In order to compare dimethyl sulfoxide and its potential as an inhibitor with the compounds of this invention, rats were given dosages of 19.6 millimoles per kilogram of body weight of alcohol and/or injections of one millimole per kilogram of body weight of the inhibitors, either dimethyl sulfoxide, tetramethylene sulfoxide, 3-methyltetramethylene sulfoxide, or 3-butyltetramethylene sulfoxide. After injection, the alcohol concentration in the blood was measured. The drawing reports the alcohol concentration. The line designated by the numeral 12 represents ethanol without any inhibitor. The line designated by 11 represents ethanol with dimethyl sulfoxide. The line represented by the numeral 13 represents ethanol with tetramethylene sulfoxide.

[5] = tested on: isolated liver alcohol dehydrogenases; test: Inhibition of ethanol oxidation by isolated liver alcohol dehydrogenases (general statements); type: biochemical
Description: as §6

ethanol metabolism [6] = test: Ethanol (elimination rate) metabolism in rats; type: in vivo, male Sprague-Dawley rats; details: for Ethanol (Elimination Rate) Metabolism In Rats, % Inhibition: 19.6 mmoles of ethanol/kg i.p. and 1 mmole/kg inhibitor, maximum obtainable about 85%
Description: ^b The Kii (intercept inhibition constant, micromoles/kg) was
determined with varied concentrations of inhibitor and ethanol by
determination of blood alohol concentrations. For a survey of inhibitory
potency, rats were given 19.6 mmoles of ethanol/kg body wt., i.p., and 1.
mmole of the inhibitor, and the percentage inhibition of ethanol
elimination was calculated with reference to an animal given no inhibitor
The maximum "inhibition" that can be obtained is about 85%, since some
ethanol is eliminated by excretion, rather than by oxidation by alcohol
^c The value was estimated from results from rats given 19.6 mmoles o
ethanol/kg and 0.1, 0.4, and 1.0 mmoles/kg of the inhibitor.
The precise experimental details for assembling the data shown in the above table are reported in our Journal of Medicinal Chemistry article, 1983, Vol. 26, No. 6, at page 921. The entire article is incorporated herein by reference. In particular, for the rat studies, inhibition of ethanol metabolism by the active compounds of this invention were studied in vitro in liver alcohol dehydrogenase from horses, monkeys and rats. The in vivo study of ethanol metabolism in rats, and in particular its inhibition was studied with male Sprague-Dawley rats, which were given intraperitoneal injections of active compounds (0.1 molar) in saline at doses of 0.0, 0.25 and 0.5 or 1.0 mmole/kg of body weight. Ten minutes later, ethanol was injected intraperitoneally at a dose of 19.6 mmoles/kg of body weight. Blood samples were taken at intervals, timed from the ethanol injection, and analyzed by gas chromatography.

[7] = biological target: T2, Rat liver alcohol dehydrogenase (Rattus norvegicus, UniProt P06757); test: Inhibition of rat liver alcohol dehydrogenase in vitro (Kii against varied ethanol); type: biochemical
T2 construct: Rat liver alcohol dehydrogenase was partially purified; from tissue; host or cells: rat liver
T2 sequence (P06757 2-376 limits assumed): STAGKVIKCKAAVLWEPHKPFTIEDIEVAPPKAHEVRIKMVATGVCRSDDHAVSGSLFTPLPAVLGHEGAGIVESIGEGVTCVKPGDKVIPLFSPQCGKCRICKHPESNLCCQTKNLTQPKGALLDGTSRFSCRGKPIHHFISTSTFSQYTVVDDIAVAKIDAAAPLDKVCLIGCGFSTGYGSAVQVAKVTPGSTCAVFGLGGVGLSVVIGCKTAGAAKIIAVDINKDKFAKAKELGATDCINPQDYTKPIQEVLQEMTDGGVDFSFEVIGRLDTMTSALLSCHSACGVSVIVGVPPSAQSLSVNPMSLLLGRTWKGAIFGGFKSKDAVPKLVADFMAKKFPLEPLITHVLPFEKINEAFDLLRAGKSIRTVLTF
Description: as §1, §2, §3, §4, §5, §6

[8] = biological target: Liver Alcohol Dehydrogenase (Monkey); test: Inhibition of monkey liver alcohol dehydrogenase in vitro (Kii against varied ethanol); type: biochemical; details: purified or partially purified enzyme, pH 7.3, 37° C., ethanol varied as substrate
Description: as §1, §2, §3, §4, §5

[9] = partially purified enzyme, pH 7.3, 37° C., ethanol varied as substrate, read-out: Liver Alcohol Dehydrogenase, In Vitro, Kii, Rat
[10] = crystallized horse enzyme, pH 7, 25° C., ethanol varied as substrate, read-out: Liver Alcohol Dehydrogenase, In Vitro, Kii, Horse

| SMILES | effectiveness as inhibitor of alcohol metabolism (blood alcohol concentration) (ethanol metabolism [4]) | Ethanol (Elimination Rate) Metabolism In Rats, % Inhibition (ethanol metabolism [6]) [%] | Ki [8] [µM] | Ki [7, 9] [µM] | Ki [3, 10] [µM] | also measured |
| --- | --- | --- | --- | --- | --- | --- |
| C[S+](C)[O-] [dimethyl sulfoxide, reference compound] | not effective as an inhibitor | – | – | – | – | inhibitory effect on alcohol metabolism ([1]; Sharkawi, Toxicology Letters 1979): some slight inhibitory effect; effect on ethanol induced loss of righting reflex [2]: significantly "prolong the ethanol induced loss of righting reflex in mice"; inhibition constant with horse liver alcohol dehydrogenase ([3]; stated for comparison): four to five |
| [O-][S+]1CCCC1 [Tetramethylene Sulfoxide, tetramethylene sulfoxide] | far more effective | 63 | 1700 | – | – | inhibition of ethanol oxidation by isolated liver alcohol dehydrogenases (in words) [5]: exceptionally potent inhibitors; inhibition of ethanol metabolism in animals (in words) (ethanol metabolism [6]; animals/rats): effectively inhibit ethanol metabolism in animals; Ethanol (Elimination Rate) Metabolism In Rats, Kii (ethanol metabolism [6]; intercept inhibition constant, varied concentrations of inhibitor and ethanol, blood alcohol concentrations, i.p.): 340 µmol/kg; Ki [7]: 200 µM; Ki [3]: 19 µM |
| CCO [ethanol] | – | – | – | – | – | type of inhibition [1]: competitive inhibitor; effectiveness as inhibitor ([1]; ethanol as treatment for toxic alcohol ingestion): not a very effective inhibitor |
| CCCCC1CC[S+]([O-])C1 (stereo not shown) [3-Butyltetramethylene sulfoxide, 3-butylthiolane-1-oxide] | far superior to even tetramethylene sulfoxide | 76 | 2.2 | 1.5 | 0.63 | – |
| CC1CC[S+]([O-])C1 (stereo not shown) [3-Methyltetramethylene sulfoxide, 3-Methylthiolane-1-oxide] | far superior to even tetramethylene sulfoxide | 72 | 450 | 18 | 7.5 | Ethanol (Elimination Rate) Metabolism In Rats, Kii (estimated) (ethanol metabolism [6]; estimated from rats given 19.6 mmoles of ethanol/kg and 0.1, 0.4, and 1.0 mmoles/kg of inhibitor): 150 µmol/kg |

— patent US4482568A, “Inhibition of alcohol metabolism by tetramethylene sulfoxides” (University of Iowa Research Foundation, priority 1983, dated 1984)
